Laboratory results: PMC9732152 (The Laryngoscope, 2022)
Entries after “also recorded” stand apart in the source; their conditions may differ. Counter-ions that a name gives are not always drawn. Square brackets hold non-standard residues; d marks the D form. Peptide text beside a SMILES is read from it. * marks the point of attachment. Sta = CC(C)C[C@H](N)[C@@H](O)CC(=O)O; Isovaleryl = CC(C)CC(=O)*

Assays:
porcine pepsin A = porcine pepsin A (Sus scrofa, UniProt P00791); assay type: binding; conditions: 100nM pepstatin-Alexa647 probe, 0.03U/ul porcine pepsin A, 37.5% DMSO, 0.1 M HCl pH 1
porcine pepsin = porcine pepsin (Sus scrofa, UniProt P00791); experiment: Fluorescence polarization peptic activity assay with casein-Alexa647 substrate; assay type: biochemical; conditions: for inhibition of pepsin (IC50): 200nM casein-Alexa647 probe, 0.01U/μL pepsin, 5% DMSO, 0.1 M HCl pH 1
[1] = test system: pepsin-mediated laryngeal damage; experiment: Laryngopharyngeal reflux mouse model; assay type: in vivo, female Jackson A/J mice
[2] = cited from earlier work
pepsin = conditions: cited from earlier work
[3] = aerosol with saline (solvent) instillation
[4] = gavage with saline (solvent) instillation

Sequence of porcine pepsin (P00791 60-385): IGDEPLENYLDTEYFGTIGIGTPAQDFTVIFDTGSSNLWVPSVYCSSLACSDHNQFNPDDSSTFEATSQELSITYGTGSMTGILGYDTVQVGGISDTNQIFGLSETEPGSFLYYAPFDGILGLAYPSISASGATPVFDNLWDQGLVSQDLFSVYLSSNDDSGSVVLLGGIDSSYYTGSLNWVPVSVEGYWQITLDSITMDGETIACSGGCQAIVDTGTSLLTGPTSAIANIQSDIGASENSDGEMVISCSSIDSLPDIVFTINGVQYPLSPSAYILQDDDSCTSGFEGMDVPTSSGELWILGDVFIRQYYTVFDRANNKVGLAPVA
Sequence of porcine pepsin A (P00791 60-385): as above

CC(C)CN(C[C@@H](O)[C@H](Cc1ccccc1)NC(=O)O[C@H]1CO[C@H]2OCC[C@H]21)S(=O)(=O)c1ccc(N)cc1 [darunavir, darunavir ethanolate]
binding to pepsin (porcine pepsin A): bound | inhibition of pepsin (IC50) (porcine pepsin): inhibited pepsin at low micromolar concentrations; also recorded: low micromolar range | IC50 for pepsin compared with the other inhibitors (porcine pepsin; comparison among the HIV protease inhibitors tested): lowest IC50 | laryngeal epithelial histology/reactivity elicited by the drug itself [1, 3]: absent | apoptosis in laryngeal epithelium ([1]; aerosol, inhaled mass 12mg/kg/day darunavir, pepsin-pH7 instillation): no apoptosis was observed | laryngeal epithelial histology/reactivity elicited by the drug itself [1, 4]: mild reactivity (rare intraepithelial lymphocytes)

CC(C)(C)NC(=O)[C@@H]1C[C@@H]2CCCC[C@@H]2CN1C[C@@H](O)[C@H](Cc1ccccc1)NC(=O)[C@H](CC(N)=O)NC(=O)c1ccc2ccccc2n1 [saquinavir, saquinavir mesylate]
binding to pepsin (porcine pepsin A): bound | inhibition of pepsin (IC50) (porcine pepsin): inhibited pepsin at low micromolar concentrations; also recorded: low micromolar range | known side effects and interactions [2]: QT prolongation, heart block, high blood lipids and liver problems

CC(C)CN(C[C@@H](O)[C@H](Cc1ccccc1)NC(=O)O[C@H]1CCOC1)S(=O)(=O)c1ccc(N)cc1 [amprenavir]
binding to pepsin (porcine pepsin A): bound | inhibition of pepsin (IC50) (porcine pepsin): inhibited pepsin at low micromolar concentrations; also recorded: low micromolar range | known side effects and interactions [2]: minimal side effects (diarrhea, nausea and vomiting)

CC(C)CC(=O)N[C@H](C(=O)N[C@H](C(=O)N[C@@H](CC(C)C)[C@@H](O)CC(=O)N[C@@H](C)C(=O)N[C@@H](CC(C)C)[C@@H](O)CC(=O)O)C(C)C)C(C)C [pepstatin, pepstatin A] (Isovaleryl-VV[Sta]A[Sta]-OH)
affinity for pepsin (pepsin): sub-nanomolar

CC(C)c1nc(CN(C)C(=O)N[C@H](C(=O)N[C@@H](Cc2ccccc2)C[C@H](O)[C@H](Cc2ccccc2)NC(=O)OCc2cncs2)C(C)C)cs1 [ritonavir]
binding to pepsin (porcine pepsin A): bound | known side effects and interactions [2]: minimal side effects (diarrhea, nausea and vomiting)

CC(C)CN(C[C@@H](OP(=O)(O)O)[C@H](Cc1ccccc1)NC(=O)O[C@H]1CCOC1)S(=O)(=O)c1ccc(N)cc1 [fosamprenavir]
laryngeal epithelial histology/reactivity elicited by the drug itself [1, 3]: normal histology | laryngeal epithelial histology/reactivity elicited by the drug itself [1, 4]: normal histology
